From patent US20240277800A1, “PHARMACEUTICAL COMPOSITION COMPRISING MACROCOSINE COMPOUND AND METHOD FOR PREPARING MACROCOSINE COMPOUND” (priority 2021, published 2024)
In brackets after ≈: the same amount, converted by molar mass. Read-outs that look alike come from different tables or passages of the source.

System: M. tuberculosis
Assay: Antibacterial activity against tuberculosis bacteria, resazurin (REMA) MIC50
Format: cell-based
Conditions: Mycobacterium tuberculosis

Molecule `C/C=C(\NC(=O)c1csc(-c2csc(-c3ccc4c(n3)-c3csc(n3)[C@H]([C@@H](C)O)NC(=O)c3csc(n3)[C@H](C(C)C)NC(=O)c3csc(n3)/C(=C/C)NC(=O)[C@H]([C@@H](C)O)NC(=O)c3csc-4n3)n2)n1)C(=O)NCC(C)=O` [Micrococcin P2] has an MIC50 (Extensively Drug Resistant #3 (XDR-3), read-out: MIC50) of 0.375 µM (≈ 0.428 µg/mL), an MIC50 (Extensively Drug Resistant #4 (XDR-4), read-out: MIC50) of 0.094 µM (≈ 0.107 µg/mL) and an MIC50 (Extensively Drug Resistant #5 (XDR-5), read-out: MIC50) of 0.114 µM (≈ 0.13 µg/mL). It also gave an MIC50 (Extensively Drug Resistant #6 (XDR-6), read-out: MIC50) of 0.722 µM (≈ 0.825 µg/mL), an MIC50 (Extensively Drug Resistant #10 (XDR-7)) of 0.209 µM (≈ 0.239 µg/mL) and an MIC50 (Multi Drug Resistant isolate #3 (MDR-3), read-out: MIC50) of 0.073 µM (≈ 0.0834 µg/mL). The MIC50 (Multi Drug Resistant isolate #4 (MDR-4), read-out: MIC50) was 0.169 µM (≈ 0.193 µg/mL), the MIC50 (Multi Drug Resistant isolate #11 (MDR-11), read-out: MIC50) was 0.051 µM (≈ 0.0583 µg/mL) and the MIC50 (Multi Drug Resistant isolate #20 (MDR-20), read-out: MIC50) was 2.3 µM (≈ 2.63 µg/mL). The MIC50 (Multi Drug Resistant isolate #21 (MDR-21), read-out: MIC50) was 0.044 µM (≈ 0.0503 µg/mL) and the MIC50 (Multi Drug Resistant isolate #30 (MDR-30), read-out: MIC50) was 0.304 µM (≈ 0.347 µg/mL).
